Experimental findings from patent US12643859B2, “Pyridyl oxycarboxylic acid oxime derivative and preparation method therefor, weeding composition and application thereof” (Qingdao Kingagroot Chemical Compound Co., Ltd., priority 2018, dated 2026) are described below.

The first series concerns Indica rice. The series is described as follows: Post-emergence test experiment, crop selectivity. It counts as in vivo. The settings on record: post-emergence spray, 600 g a.i./ha plus water 450 kg/ha, 3 weeks in greenhouse. Here is the method:
(§1) The above described growth inhibition rate is fresh weight inhibition rate.
(§2) Post-emergence test experiment: Monocotyledonous and dicotyledonous weed seeds and main crop seeds (i. e. wheat, corn, rice, soybean, cotton, oilseed, millet and sorghum.) were put into a plastic pot loaded with soil. Then covered with 0.5-2 cm soil, the seeds were allowed to grow in good greenhouse environment. The test plants were treated at 2-3 leaf stage 2 weeks after sowing. The test compounds of the invention were dissolved with acetone respectively, then added with tween-80, and using 1.5 liters per hectare of an emulsible concentrate of methyl oleate as a synergist, and diluted by certain amount of water to certain concentration. The solution was sprayed to the plants with a sprayer. Then the plants were cultured for 3 weeks in the greenhouse, and the experiment result of weed controlling effect was listed in tables 3-4.
`CC(Oc1nc(F)c(Cl)c(N)c1Cl)C(=O)ON=C(C(=O)NCc1ccco1)c1ccccc1` (stereo not drawn) [Compound 104]: the “Activity level (fresh weight growth inhibition rate), Indica rice” value is on record as 0 (Level 0: the growth inhibition rate is less than 5%).
Still for that read-out and setting: then `CC=COc1ccc(C(=NOC(=O)C(C)Oc2nc(F)c(Cl)c(N)c2Cl)C(=O)OCC)cc1` (stereo not drawn) [Compound 92], with 0 (Level 0: the growth inhibition rate is less than 5%); and `CC(Oc1nc(F)c(Cl)c(N)c1Cl)C(=O)ON=C(C#N)c1ccc(Cl)cc1` (stereo not drawn) [Compound 87], with 0 (Level 0: the growth inhibition rate is less than 5%).

A further series relates to Japonica rice. The series is described as follows: Post-emergence test experiment, crop selectivity. It counts as in vivo. The note with it: post-emergence spray, 600 g a.i./ha plus water 450 kg/ha, 3 weeks in greenhouse. As for the experimental part:
as §1, §2
For `CC(Oc1nc(F)c(Cl)c(N)c1Cl)C(=O)ON=C(C(=O)NCc1ccco1)c1ccccc1` (stereo not drawn) [Compound 104], the “Activity level (fresh weight growth inhibition rate), Japonica rice” value was 0 (Level 0: the growth inhibition rate is less than 5%).
For `CC=COc1ccc(C(=NOC(=O)C(C)Oc2nc(F)c(Cl)c(N)c2Cl)C(=O)OCC)cc1` (stereo not drawn) [Compound 92], the “Activity level (fresh weight growth inhibition rate), Japonica rice” value is on record as 0 (Level 0: the growth inhibition rate is less than 5%).
On to `CC(Oc1nc(F)c(Cl)c(N)c1Cl)C(=O)ON=C(C#N)c1ccc(Cl)cc1` (stereo not drawn) [Compound 87], for which the “Activity level (fresh weight growth inhibition rate), Japonica rice” value was 0 (Level 0: the growth inhibition rate is less than 5%).

The next series relates to Cyperus iria. Put plainly: Post-emergence test experiment, weed control. The series is classed as in vivo. The note with it: post-emergence spray, 600 g a.i./ha plus water 450 kg/ha, 3 weeks in greenhouse. Here is the method:
as §1, §2
For the compound `CC(Oc1nc(F)c(Cl)c(N)c1Cl)C(=O)ON=C(C(=O)NCc1ccco1)c1ccccc1` (stereo not drawn) [Compound 104], the “Activity level (fresh weight growth inhibition rate), Cyperus iria” value is 5 (Level 5: the growth inhibition rate is greater than 85%).
For `CC=COc1ccc(C(=NOC(=O)C(C)Oc2nc(F)c(Cl)c(N)c2Cl)C(=O)OCC)cc1` (stereo not drawn) [Compound 92], the “Activity level (fresh weight growth inhibition rate), Cyperus iria” value is given as 5 (Level 5: the growth inhibition rate is greater than 85%).
With `CC(Oc1nc(F)c(Cl)c(N)c1Cl)C(=O)ON=C(C#N)c1ccc(Cl)cc1` (stereo not drawn) [Compound 87], the “Activity level (fresh weight growth inhibition rate), Cyperus iria” value was 5 (Level 5: the growth inhibition rate is greater than 85%).

The next series concerns Monocotyledonous and dicotyledonous weed seeds and main crop seeds. The series is described as follows: Post-emergence test experiment (Table 3, 1000 g a.i./ha). The series is classed as in vivo. The settings on record: Digitaria sanguinalis, 3 weeks in greenhouse, fresh weight inhibition. As for the experimental part:
as §1, §2
Turning to `CC(Oc1nc(F)c(Cl)c(N)c1Cl)C(=O)ON=C(C(=O)NCc1ccco1)c1ccccc1` (stereo not drawn) [Compound 104], the “Activity level (growth inhibition rate) Digitaria sanguinalis” value was 5 (Level 5: the growth inhibition rate is greater than 85%).
`CC=COc1ccc(C(=NOC(=O)C(C)Oc2nc(F)c(Cl)c(N)c2Cl)C(=O)OCC)cc1` (stereo not drawn) [Compound 92]: the “Activity level (growth inhibition rate) Digitaria sanguinalis” value is listed as 5 (Level 5: the growth inhibition rate is greater than 85%).
In the case of `CC(Oc1nc(F)c(Cl)c(N)c1Cl)C(=O)ON=C(C#N)c1ccc(Cl)cc1` (stereo not drawn) [Compound 87], the “Activity level (growth inhibition rate) Digitaria sanguinalis” value is 5 (Level 5: the growth inhibition rate is greater than 85%).

The same series, now with this note: Echinochloa crusgalli, 3 weeks in greenhouse, fresh weight inhibition.
As for `CC(Oc1nc(F)c(Cl)c(N)c1Cl)C(=O)ON=C(C(=O)NCc1ccco1)c1ccccc1` (stereo not drawn) [Compound 104], the “Activity level (growth inhibition rate) Echinochloa crusgalli” value was 5 (Level 5: the growth inhibition rate is greater than 85%).
Regarding `CC=COc1ccc(C(=NOC(=O)C(C)Oc2nc(F)c(Cl)c(N)c2Cl)C(=O)OCC)cc1` (stereo not drawn) [Compound 92], the “Activity level (growth inhibition rate) Echinochloa crusgalli” value is 5 (Level 5: the growth inhibition rate is greater than 85%).
As to `CC(Oc1nc(F)c(Cl)c(N)c1Cl)C(=O)ON=C(C#N)c1ccc(Cl)cc1` (stereo not drawn) [Compound 87], the “Activity level (growth inhibition rate) Echinochloa crusgalli” value is recorded as 5 (Level 5: the growth inhibition rate is greater than 85%).

The same series, now with this note: Galium spurium, 3 weeks in greenhouse, fresh weight inhibition.
As to `CC(Oc1nc(F)c(Cl)c(N)c1Cl)C(=O)ON=C(C(=O)NCc1ccco1)c1ccccc1` (stereo not drawn) [Compound 104], the “Activity level (growth inhibition rate) Galium spurium” value is reported as 5 (Level 5: the growth inhibition rate is greater than 85%).
On the same count and under the same terms, then `CC=COc1ccc(C(=NOC(=O)C(C)Oc2nc(F)c(Cl)c(N)c2Cl)C(=O)OCC)cc1` (stereo not drawn) [Compound 92], with 5 (Level 5: the growth inhibition rate is greater than 85%); and `CC(Oc1nc(F)c(Cl)c(N)c1Cl)C(=O)ON=C(C#N)c1ccc(Cl)cc1` (stereo not drawn) [Compound 87], with 5 (Level 5: the growth inhibition rate is greater than 85%).

The series is the same for the next values; noted with them: Leptochloa chinensis, 3 weeks in greenhouse, fresh weight inhibition.
With `CC(Oc1nc(F)c(Cl)c(N)c1Cl)C(=O)ON=C(C(=O)NCc1ccco1)c1ccccc1` (stereo not drawn) [Compound 104], the “Activity level (growth inhibition rate) Leptochloa chinensis” value was 5 (Level 5: the growth inhibition rate is greater than 85%).
With `CC=COc1ccc(C(=NOC(=O)C(C)Oc2nc(F)c(Cl)c(N)c2Cl)C(=O)OCC)cc1` (stereo not drawn) [Compound 92], the “Activity level (growth inhibition rate) Leptochloa chinensis” value is reported as 5 (Level 5: the growth inhibition rate is greater than 85%).
`CC(Oc1nc(F)c(Cl)c(N)c1Cl)C(=O)ON=C(C#N)c1ccc(Cl)cc1` (stereo not drawn) [Compound 87]: the “Activity level (growth inhibition rate) Leptochloa chinensis” value was 5 (Level 5: the growth inhibition rate is greater than 85%).

The series is the same for the next values; noted with them: Monochoria Vaginalis, 3 weeks in greenhouse, fresh weight inhibition.
For `CC(Oc1nc(F)c(Cl)c(N)c1Cl)C(=O)ON=C(C(=O)NCc1ccco1)c1ccccc1` (stereo not drawn) [Compound 104], the “Activity level (growth inhibition rate) Monochoria Vaginalis” value was 5 (Level 5: the growth inhibition rate is greater than 85%).
In the case of `CC=COc1ccc(C(=NOC(=O)C(C)Oc2nc(F)c(Cl)c(N)c2Cl)C(=O)OCC)cc1` (stereo not drawn) [Compound 92], the “Activity level (growth inhibition rate) Monochoria Vaginalis” value is listed as 5 (Level 5: the growth inhibition rate is greater than 85%).
With `CC(Oc1nc(F)c(Cl)c(N)c1Cl)C(=O)ON=C(C#N)c1ccc(Cl)cc1` (stereo not drawn) [Compound 87], the “Activity level (growth inhibition rate) Monochoria Vaginalis” value is given as 5 (Level 5: the growth inhibition rate is greater than 85%).

The same series, now with this note: Murdannia triquetra, 3 weeks in greenhouse, fresh weight inhibition.
On to `CC(Oc1nc(F)c(Cl)c(N)c1Cl)C(=O)ON=C(C(=O)NCc1ccco1)c1ccccc1` (stereo not drawn) [Compound 104], for which the “Activity level (growth inhibition rate) Murdannia triquetra” value is 5 (Level 5: the growth inhibition rate is greater than 85%).
Take `CC=COc1ccc(C(=NOC(=O)C(C)Oc2nc(F)c(Cl)c(N)c2Cl)C(=O)OCC)cc1` (stereo not drawn) [Compound 92]: the “Activity level (growth inhibition rate) Murdannia triquetra” value is reported as 5 (Level 5: the growth inhibition rate is greater than 85%).
As for `CC(Oc1nc(F)c(Cl)c(N)c1Cl)C(=O)ON=C(C#N)c1ccc(Cl)cc1` (stereo not drawn) [Compound 87], the “Activity level (growth inhibition rate) Murdannia triquetra” value was 5 (Level 5: the growth inhibition rate is greater than 85%).

The same series, now with this note: Setaria viridis, 3 weeks in greenhouse, fresh weight inhibition.
For the compound `CC(Oc1nc(F)c(Cl)c(N)c1Cl)C(=O)ON=C(C(=O)NCc1ccco1)c1ccccc1` (stereo not drawn) [Compound 104], the “Activity level (growth inhibition rate) Setaria viridis” value was 5 (Level 5: the growth inhibition rate is greater than 85%).
Regarding `CC=COc1ccc(C(=NOC(=O)C(C)Oc2nc(F)c(Cl)c(N)c2Cl)C(=O)OCC)cc1` (stereo not drawn) [Compound 92], the “Activity level (growth inhibition rate) Setaria viridis” value was 5 (Level 5: the growth inhibition rate is greater than 85%).
For the compound `CC(Oc1nc(F)c(Cl)c(N)c1Cl)C(=O)ON=C(C#N)c1ccc(Cl)cc1` (stereo not drawn) [Compound 87], the “Activity level (growth inhibition rate) Setaria viridis” value was 5 (Level 5: the growth inhibition rate is greater than 85%).
